This is an account of results in article PMC8999638, “Identification of Entry Inhibitors against Delta and Omicron Variants of SARS-CoV-2” (International Journal of Molecular Sciences, 2022).

Where two headings read alike, the source gives them in different places.

The nature of one data set: in vitro. As to conditions: African green monkey, VeroE6 CC50, VERO E6 cells, CellTiter-Glo.
Another data set has as its system VERO E6 cells. The conditions noted are these: VeroE6 cells.
Data set [1] deals with spike-based pseudovirus (wild type) on SmBiT-ACE2 HeLa cells. The data set is described as follows: microbe, parasite or virus in culture. The format is cell-based, SARS-CoV-2. As to conditions: Pseudovirus, HeLa.
A further data set relates to SARS-CoV-2. The experiment in a line: microbe, parasite or virus in culture. The format is cell-based. As to conditions: Severe acute respiratory syndrome coronavirus 2, Vero C1008, 120 h, read-out: EC50 SARS-CoV-2 PRNT.
Another data set concerns NanoBiT. The experiment in a line: Negative screening HiBiT assay (NanoBiT activity). The format is cell-based.
Data set [2] has as its target RBD-ACE2 attachment (RBD of viral spike protein and ACE2 receptor) (Severe acute respiratory syndrome coronavirus 2, UniProt P0DTC2). The experiment in a line: cell-based. Also noted: species or system SARS-CoV-2; human.

The term CC50 denotes the concentration giving 50% cytotoxicity. Low values mean harm at low concentration, high ones better tolerance by the cells. In general, EC50 refers to the midpoint of the concentration-response curve. As usually defined, the inhibition is the drop in the measured response relative to a control, in per cent. `Cc1cc(C#N)cc(C)c1Oc1nc(Nc2ccc(C#N)cc2)nc(N)c1Br` [Etravirine] showed a CC50 in the data set “in vitro” above 100000 nM. Moreover, the “Cytotoxicity to VeroE6 cells” value with VERO E6 cells is reported as “not toxic”. Also, the EC50 was 6 nM in data set [1] (read-out: EC50 Pseudovirus Wild Type), 5.8 nM in data set [1] (read-out: EC50 pseudovirus neutralization assay), 7700 nM with SARS-CoV-2 and 2300 nM in data set [2]. Also, the “Negative Screening HiBiT Assay % Inhibition (20 μM)” value with NanoBiT (20 μM drug) was found to be 0%. Further, the “Negative Screening HiBiT Assay % Inhibition (100 μM)” value in the data set with NanoBiT (100 μM drug) turned out to be 31%. Moreover, the “Negative Screening HiBiT Assay INHIBIT NanoBiT” value in the data set on NanoBiT (>70% inhibition in 100 μM, then including >35% inhibition at 20 μM) is listed as “No”. Besides, the “Positive Screening RBD Attachment Assay Dose Response” value in data set [2] is reported as “Yes”. In data set [2] (HeLa, read-out: Positive Screening RBD Attachment Assay % Inhibition (20 μM)), the inhibition at 20 µM is above 70%. In addition, the inhibition at 100 µM in data set [2] (HeLa, read-out: Positive Screening RBD Attachment Assay % Inhibition (100 μM)) worked out at 90%.
